Paper PMC8261254 (Asian Journal of Pharmaceutical Sciences, 2021)
≈ marks a conversion by molar mass, not a printed value. Where two headings read alike, the source gives them in different places.

Columns and labels:
[1] = cited from earlier work
[2] = PTX solubility in PLHNs / water; assay type: physicochemical

solubility [2]: ~6 µg/mL (≈ 7.03 µM)
SMILES: CC(=O)O[C@H]1C(=O)[C@@]2(C)[C@H]([C@H](OC(=O)c3ccccc3)[C@]3(O)C[C@H](OC(=O)[C@H](O)[C@@H](NC(=O)c4ccccc4)c4ccccc4)C(C)=C1C3(C)C)[C@]1(OC(C)=O)CO[C@@H]1C[C@@H]2O [PTX, Paclitaxel]
Plasma concentration threshold above which PTX is pharmacologically active [1]: 0.1 µM | Plasma concentration threshold above which PTX is pharmacologically active ([1]; equivalent of 0.1 µM): 85.3 ng/ml
